1 compound from patent US20190284192A1, “NITROGENOUS MACROCYCLIC COMPOUND, PREPARATION METHOD THEREFOR, PHARMACEUTICAL COMPOSITION AND APPLICATION THEREOF” (LUOXIN PHARMACEUTICAL (SHANGHAI) CO., LTD., priority 2016, published 2019) can be followed below.

Each structure is given as a SMILES string.

This experiment deals with MYC mRNA expression in MV-4-11 xenograft tumor. Nature of the experiment: PKPD of compound 4009 in MV-4-11 subcutaneous xenograft (MYC mRNA by RT-qPCR). It counts as in vivo, BALB/c nude mice. As to conditions: 15 mg/kg single dose intragastric; 1, 2, 4, 6, 8, 24 h. The protocol: Cell Culture MV-4-11 (purchased from ATCC, CRL-9591) cells were single-layer-cultured in vitro, culture condition is IMDM medium supplemented with 10% heat-inactivated fetal bovine serum and 1% penicillin-streptomycin double antibody, at 37° C., 5% CO2. According to the growth of the cells, the treatment was passaged twice a week. When the cells are in the exponential growth phase, the cells are collected, counted, and inoculated.
Experimental protocol: 0.2 mL of cell suspension containing about […] cells (cell suspended in IMDM medium and added with 50% Matrigel) was inoculated subcutaneously into the right back of each mouse. […] Grouping method: animals were weighed before dosing and tumor volume was measured. […]
Preparation of cDNA: The concentration of RNA (NanaDrop2000) was determined, 2 μg RNA was used as a template for reverse transcription, and cDNA preparation (RT-PCR) was performed using a High Capacity cDNA Reverse Transcription Kit.
Quantitative amplification of the target gene: Real-time qPCR amplification was performed using TaqMan fluorescent probe and cDNA as a template. […] The reaction system was separately added to a 384-well plate, and each sample of the target gene and the comparative gene was measured for three replicate wells, and the reaction was run on a prepared 384-well plate instrument (ABI ViiA7).
(Quantitative PCR measures a nucleic acid by following its amplification.)

Turning to `CCS(=O)(=O)Cc1ccc2c(c1)-c1cn(C)c(=O)cc1CN=C2c1ccc(F)cc1` [Compound 4009, 7-(4-fluorophenyl)-2-methyl-10-(ethylsulfonemethyl)-2H-benzo[c]pyrido[3,4-e]azepin-3(5H)-ketone], the “inhibition of the expression level of MYC mRNA in the tumor versus concentration of the drug in the tumor” value is listed as “good correlation”.
